This assay deals with human FGFR4 protein (460-802 amino acids) (Homo sapiens (Human), UniProt P22455). Nature of the assay: FGFR4 Activity Inhibition Test (HTRF KinEASE-TK in vitro kinase assay). To be noted: compound-enzyme incubation 60 min at room temperature, kinase reaction 37° C. 40 min, 10 concentration points. In kind it is biochemical. The procedure: The influence of the compound of the present invention on the activity of the tyrosine kinase FGFR4 was evaluated by an in vitro kinase assay experiment. The experimental method is summarized as follows: A HTRF® KinEASE™-TK 20000 tests kinase assay kit from CISBIO Corp. was used. The kit provided a biotin-labeled substrate, an EU-labeled phosphorylation site-specific antibody, and XL665-labeled avidin and a related buffer. FGFR4 phosphorylated the substrate, Eu-Ab identified the phosphorylated substrate, and XL665-SA binded to the biotin on the substrate, making Eu get closer to XL665, thus generating the HTRF signal. Changes in the activity of kinase was detected by reading the intensity of the HTRF signal. In the kinase assay experiment, there were mainly two steps of reaction: kinase reaction and assay reaction, respectively. In the kinase reaction, the kinase consumed ATP to phosphorylate the substrate, and at the same time produced a substrate containing a phosphate group. In the assay reaction, an assay reagent was added to terminate the kinase reaction. At the same time, the specific antibody and the XL665-labeled avidin in the assay reagent were binded to the phosphate group on the substrate and biotin respectively to generate HTRF signals. The signal intensity was directly proportional to the phosphorylation level of the substrate, and thereby the activity of the kinase FGFR4 could be quantitatively assayed. During the assay, the binding and incubation of the compound with the enzyme was carried out at room temperature for 60 min. The kinase reaction was carried out at a constant temperature of 37° C. for 40 min. […] The kinase substrates were TK (commercially available from Cisbio) and ATP (Sigma). The optical signals were read by a microplate reader TECAN Spark 10M plate reader (TECAN). The kinase reaction buffer comprised 1× Enzymatic buffer (CISBIO) 5 mM MgCl2 (Sigma) and 1 mM DTT (Sigma). […] First, the compound was dissolved and diluted with 100% DMSO into a 96-well plate at 3 concentrations: 4 mM, 40 μM, and 0.4 μM. […] Each concentration point was provided with two copy holes (starting point 10 μM, 3-fold dilution). First, 6 μL of the kinase solution was added into the 384-well assay plate, mixed uniformly and then incubated at room temperature for 60 min. Then 4 μL of the substrate reaction solution was added, and the total reaction volume was 10 μL. […] Subsequently, 10 μL of the kinase assay reagent was added and the reaction was terminated. Then the numerical values were read on the TECAN plate reader. The inhibition percentage was calculated based on the following formula: % inhibition=[1−(RLUcompound−RLUmin)/(RLUmax−RLUmin)]×100 wherein RLUcompound is the luminescence reading at the given compound concentration, RLUmin is the luminescence reading without the addition of kinase, and RLUmax is the luminescence reading without the addition of the compound. IC50 of the compound was calculated by the XLfit program in Excel.
Sequence of human FGFR4 protein (460-802 amino acids) (P22455 460-802): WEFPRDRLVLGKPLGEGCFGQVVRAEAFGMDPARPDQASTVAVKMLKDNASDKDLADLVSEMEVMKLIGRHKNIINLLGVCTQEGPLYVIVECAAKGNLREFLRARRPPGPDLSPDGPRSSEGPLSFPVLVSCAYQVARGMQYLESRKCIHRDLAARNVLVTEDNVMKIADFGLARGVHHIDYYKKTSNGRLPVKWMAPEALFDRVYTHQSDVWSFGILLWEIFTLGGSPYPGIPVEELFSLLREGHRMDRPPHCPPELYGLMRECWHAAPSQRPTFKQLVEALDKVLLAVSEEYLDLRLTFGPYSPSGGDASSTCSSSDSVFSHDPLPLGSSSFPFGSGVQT
`C=CC(=O)Nc1cc(Cl)ccc1-c1n[nH]c2c1CC[C@@H](c1c(Cl)c(OC)cc(OC)c1Cl)C2` (single isomer, unassigned) [Compound 289-P2, N-(5-chloro-2-(6-(2,6-dichloro-3,5-dimethoxyphenyl)-4,5,6,7-tetrahydro-1H-indazol-3-yl)phenyl)acrylamide] displayed an IC50 of 210 nM.

Compound `C=CC(=O)Nc1cnn(C)c1-c1n[nH]c2c1CC[C@@H](c1c(F)c(OC)cc(OC)c1F)C2` (single isomer, unassigned) [Compound 281-P2, N-(5-(6-(2,6-difluoro-3,5-dimethoxyphenyl)-4,5,6,7-tetrahydro-1H-indazol-3-yl)-1-methyl-1H-pyrazol-4-yl)acrylamide] displayed an IC50 of 2.96 nM. Under `C=CC(=O)Nc1cnn(C)c1-c1n[nH]c2c1CC[C@@H](c1c(F)c(OC)cc(OC)c1Cl)C2` (single isomer, unassigned) [Compound 303-P1, N-(5-(6-(2-chloro-6-fluoro-3,5-dimethoxyphenyl)-4,5,6,7-tetrahydro-1H-indazol-3-yl)-1-methyl-1H-pyrazol-4-yl)acrylamide] stands 6 nM; under `C=CC(=O)Nc1cnn(C)c1-c1n[nH]c2c1CC[C@@H](c1cc(OC)cc(OC)c1Cl)C2` (single isomer, unassigned) [Compound 311-P2, N-(5-(6-(2-chloro-3,5-dimethoxyphenyl)-4,5,6,7-tetrahydro-1H-indazol-3-yl)-1-methyl-1H-pyrazol-4-yl)acrylamide], 129 nM. In turn, `C=CC(=O)Nc1cnn(C)c1-c1n[nH]c2c1CC[C@@H](c1cc(OC)cc(OC)c1)C2` (single isomer, unassigned) [Compound 310-P2, N-(5-(6-(3,5-dimethoxyphenyl)-4,5,6,7-tetrahydro-1H-indazol-3-yl)-1-methyl-1H-pyrazol-4-yl)acrylamide] came in with an IC50 of 171 nM. The compound `C=CC(=O)Nc1ccccc1-c1n[nH]c2c1CCC(c1c(F)c(OC)cc(OC)c1F)C2` (centres unmarked) [Compound 093, N-(2-(6-(2,6-difluoro-3,5-dimethoxyphenyl)-4,5,6,7-tetrahydro-1H-indazol-3-yl)phenyl)acrylamide] yielded an IC50 of 29.2 nM. Take `C=CC(=O)Nc1ccc(N2CCN(C)CC2)cc1-c1n[nH]c2c1CC[C@@H](c1c(F)c(OC)cc(OC)c1F)C2` (single isomer, unassigned) [Compound 301-P2, N-(2-(6-(2,6-difluoro-3,5-dimethoxyphenyl)-4,5,6,7-tetrahydro-1H-indazol-3-yl)-4-(4-methylpiperazin-1-yl)phenyl)acrylamide]: it took 11.8 nM to reach half-maximal inhibition (IC50). As for `C=CC(=O)Nc1ccccc1-c1n[nH]c2c1CCC(c1cc(OC)cc(OC)c1F)C2` (centres unmarked) [Compound 114, N-(2-(6-(2-fluoro-3,5-dimethoxyphenyl)-4,5,6,7-tetrahydro-1H-indazol-3-yl)phenyl)acrylamide], the IC50 was 158 nM.

Consider `C=CC(=O)Nc1ccc(F)cc1-c1n[nH]c2c1CCC(c1c(Cl)c(OC)cc(OC)c1Cl)=C2` [Compound 297, N-(2-(6-(2,6-dichloro-3,5-dimethoxyphenyl)-4,5-dihydro-1H-indazol-3-yl)-4-fluorophenyl)acrylamide], for which the IC50 turned out to be 236 nM. In turn, `C=CC(=O)Nc1cnn(C)c1-c1n[nH]c2c1CC[C@@H](c1c(F)c(OC)cc(OC)c1F)C2` (single isomer, unassigned) [Compound 281-P1, N-(5-(6-(2,6-difluoro-3,5-dimethoxyphenyl)-4,5,6,7-tetrahydro-1H-indazol-3-yl)-1-methyl-1H-pyrazol-4-yl)acrylamide] yielded a concentration for half-maximal inhibition (IC50) of 5.73 nM.

`C=CC(=O)Nc1cc(Cl)ccc1-c1n[nH]c2c1CC[C@@H](c1c(Cl)c(OC)cc(OC)c1Cl)C2` (single isomer, unassigned) [Compound 289-P1, N-(5-chloro-2-(6-(2,6-dichloro-3,5-dimethoxyphenyl)-4,5,6,7-tetrahydro-1H-indazol-3-yl)phenyl)acrylamide] registered an IC50 of 109 nM. Compound `C=CC(=O)Nc1cnn(C)c1-c1n[nH]c2c1CC[C@@H](c1c(F)c(OC)cc(OC)c1Cl)C2` (single isomer, unassigned) [Compound 303-P2, N-(5-(6-(2-chloro-6-fluoro-3,5-dimethoxyphenyl)-4,5,6,7-tetrahydro-1H-indazol-3-yl)-1-methyl-1H-pyrazol-4-yl)acrylamide] had an IC50 of 5.5 nM. Turning to `C=CC(=O)Nc1cnn(C)c1-c1n[nH]c2c1CC[C@@H](c1cc(OC)cc(OC)c1Cl)C2` (single isomer, unassigned) [Compound 311-P1, N-(5-(6-(2-chloro-3,5-dimethoxyphenyl)-4,5,6,7-tetrahydro-1H-indazol-3-yl)-1-methyl-1H-pyrazol-4-yl)acrylamide], inhibition was half-maximal at 203 nM (IC50). Consider `CC#CC(=O)Nc1ccccc1-c1cc(CCc2c(Cl)c(OC)cc(OC)c2Cl)[nH]n1` [Compound 096, N-(2-(5-(2,6-dichloro-3,5-dimethoxyphenethyl)-1H-pyrazol-3-yl)phenyl)but-2-ynoic amide], for which the IC50 is 348 nM. The compound `C=CC(=O)Nc1ccc(N2CCN(C)CC2)cc1-c1n[nH]c2c1CC[C@@H](c1c(Cl)c(OC)cc(OC)c1Cl)C2` (single isomer, unassigned) [Compound 283-P2, N-(2-(6-(2,6-dichloro-3,5-dimethoxyphenyl)-4,5,6,7-tetrahydro-1H-indazol-3-yl)-4-(4-methylpiperazin-1-yl)phenyl)acrylamide] gave an IC50 of 45 nM. In turn, `C=CC(=O)Nc1ccc(Cl)cc1-c1n[nH]c2c1CC[C@@H](c1c(Cl)c(OC)cc(OC)c1Cl)C2` (single isomer, unassigned) [Compound 287-P1, N-(4-chloro-2-(6-(2,6-dichloro-3,5-dimethoxyphenyl)-4,5,6,7-tetrahydro-1H-indazol-3-yl)phenyl)acrylamide] returned an IC50 of 158 nM.

With `C=CC(=O)Nc1cnn(C)c1-c1n[nH]c2c1CC[C@@H](c1cc(OC)cc(OC)c1)C2` (single isomer, unassigned) [Compound 310-P1, N-(5-(6-(3,5-dimethoxyphenyl)-4,5,6,7-tetrahydro-1H-indazol-3-yl)-1-methyl-1H-pyrazol-4-yl)acrylamide], the IC50 turned out to be 446 nM. In turn, `C=CC(=O)Nc1ccc(N2CCN(C)CC2)cc1-c1n[nH]c2c1CC[C@@H](c1c(Cl)c(OC)cc(OC)c1Cl)C2` (single isomer, unassigned) [Compound 283-P1, N-(2-(6-(2,6-dichloro-3,5-dimethoxyphenyl)-4,5,6,7-tetrahydro-1H-indazol-3-yl)-4-(4-methylpiperazin-1-yl)phenyl)acrylamide] came in with an IC50 of 190 nM.

In turn, `C=CC(=O)Nc1cc(F)ccc1-c1n[nH]c2c1CCC(c1c(Cl)c(OC)cc(OC)c1Cl)=C2` [Compound 296, N-(2-(6-(2,6-dichloro-3,5-dimethoxyphenyl)-4,5-dihydro-1H-indazol-3-yl)-5-fluorophenyl)acrylamide] gave an IC50 of 118 nM. Under `C=CC(=O)Nc1ccc(N2CCOCC2)cc1-c1n[nH]c2c1CCC(c1c(Cl)c(OC)cc(OC)c1Cl)=C2` [Compound 300, N-(2-(6-(2,6-dichloro-3,5-dimethoxyphenyl)-4,5-dihydro-1H-indazol-3-yl)-4-morpholinophenyl)acrylamide] stands 504 nM.

By IC50 is commonly meant the concentration that inhibits the measured activity by half.

For the origin of these results see patent publication US11279697B2, “Aromatic derivative, preparation method for same, and medical applications thereof” (BIOARDIS LLC, priority 2017, dated 2022).
